Laboratory results: patent publication US11814367B2, “Inhibitors of glycogen synthase 1 (GYS1) and methods of use thereof” (Maze Therapeutics, Inc., priority 2021, dated 2023)

Tests used:
[1] = target: hGYS1 enzyme (recombinant hGYS1/GN1 protein) (Homo sapiens (Human), UniProt P13807); experiment: GYS1 coupled enzyme assay (PK/LDH); assay type: biochemical; settings: hGYS1/GN1 50 nM, UDP-Glucose 0.8 mM, G6P 1 mM; geometric mean of at least 2 runs
[2] = test system: hGYS1 enzyme / glycogen synthesis in HeLa cells; experiment: GYS1 cell based assay (glycogen synthesis, Glucose-glo); design: species or system human; settings: 24 h incubation, 20 mM glucose, geometric mean of at least 2 runs
Outline: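 HeLa cells starved 24 h in medium containing only 1× Glutamax were plated onto compound in medium with 20 mM glucose (1% DMSO final) for 24 h, 37 °C, 5% CO2. Acid lysates were Tris-quenched, glucoamylase-digested (pH 5.3, 1 h, 37 °C) and read by Glucose-glo luminescence. IC50 came from Hill fits, as geometric mean of ≥2 runs.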

[3] = target: hGYS2 enzyme (recombinant hGYS2/GN1 protein) (Homo sapiens (Human), UniProt P54840); experiment: GYS2 coupled enzyme assay (PK/LDH); assay type: biochemical; settings: geometric mean of at least 2 assay runs on separate days, read-out: Avg_IC50
Chain of hGYS2 enzyme (recombinant hGYS2/GN1 protein) (P54840 whole entry): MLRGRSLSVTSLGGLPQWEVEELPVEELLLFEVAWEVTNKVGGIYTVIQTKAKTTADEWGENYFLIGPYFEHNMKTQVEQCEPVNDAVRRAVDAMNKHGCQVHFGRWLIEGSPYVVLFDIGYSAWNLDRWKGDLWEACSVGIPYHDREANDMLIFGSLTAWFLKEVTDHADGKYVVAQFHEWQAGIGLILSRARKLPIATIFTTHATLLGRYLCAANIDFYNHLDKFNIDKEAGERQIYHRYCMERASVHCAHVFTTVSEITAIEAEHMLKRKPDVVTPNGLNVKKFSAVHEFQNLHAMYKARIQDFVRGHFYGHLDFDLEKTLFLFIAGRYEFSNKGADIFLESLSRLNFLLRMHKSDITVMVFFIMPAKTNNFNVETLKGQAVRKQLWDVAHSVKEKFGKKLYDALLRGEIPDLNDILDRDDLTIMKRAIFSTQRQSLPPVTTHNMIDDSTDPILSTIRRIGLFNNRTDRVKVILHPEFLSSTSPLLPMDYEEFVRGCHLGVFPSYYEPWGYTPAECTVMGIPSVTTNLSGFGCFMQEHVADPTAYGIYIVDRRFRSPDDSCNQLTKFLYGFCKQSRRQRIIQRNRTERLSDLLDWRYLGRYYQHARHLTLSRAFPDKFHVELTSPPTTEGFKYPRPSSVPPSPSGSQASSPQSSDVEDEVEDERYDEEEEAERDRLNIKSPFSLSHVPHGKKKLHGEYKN
Chain of hGYS2 enzyme (recombinant hGYS2/GN1 protein) (P46976 whole entry partner): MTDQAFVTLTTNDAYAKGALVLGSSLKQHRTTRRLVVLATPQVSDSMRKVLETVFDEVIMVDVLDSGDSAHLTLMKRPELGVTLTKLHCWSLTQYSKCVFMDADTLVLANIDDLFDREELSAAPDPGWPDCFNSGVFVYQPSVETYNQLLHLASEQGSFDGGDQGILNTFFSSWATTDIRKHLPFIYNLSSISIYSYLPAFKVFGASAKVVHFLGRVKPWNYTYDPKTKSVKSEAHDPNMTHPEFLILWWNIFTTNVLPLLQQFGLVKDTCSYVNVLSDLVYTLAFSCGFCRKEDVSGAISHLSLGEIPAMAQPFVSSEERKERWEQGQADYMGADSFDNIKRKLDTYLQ
Outline: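 Read-out: NADH loss at 340 nm, read each minute for 10 min, slope normalized to controls, duplicate % inhibition fit to Hill (0–100). Enzyme: 200 nM hGYS2/GN1; substrate 2 mM UDP-glucose plus 0.2% glycogen and 2 mM G6P; pH 7.5 Tris, 2.5% DMSO.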

Chain of hGYS1 enzyme (recombinant hGYS1/GN1 protein) (P13807 whole entry): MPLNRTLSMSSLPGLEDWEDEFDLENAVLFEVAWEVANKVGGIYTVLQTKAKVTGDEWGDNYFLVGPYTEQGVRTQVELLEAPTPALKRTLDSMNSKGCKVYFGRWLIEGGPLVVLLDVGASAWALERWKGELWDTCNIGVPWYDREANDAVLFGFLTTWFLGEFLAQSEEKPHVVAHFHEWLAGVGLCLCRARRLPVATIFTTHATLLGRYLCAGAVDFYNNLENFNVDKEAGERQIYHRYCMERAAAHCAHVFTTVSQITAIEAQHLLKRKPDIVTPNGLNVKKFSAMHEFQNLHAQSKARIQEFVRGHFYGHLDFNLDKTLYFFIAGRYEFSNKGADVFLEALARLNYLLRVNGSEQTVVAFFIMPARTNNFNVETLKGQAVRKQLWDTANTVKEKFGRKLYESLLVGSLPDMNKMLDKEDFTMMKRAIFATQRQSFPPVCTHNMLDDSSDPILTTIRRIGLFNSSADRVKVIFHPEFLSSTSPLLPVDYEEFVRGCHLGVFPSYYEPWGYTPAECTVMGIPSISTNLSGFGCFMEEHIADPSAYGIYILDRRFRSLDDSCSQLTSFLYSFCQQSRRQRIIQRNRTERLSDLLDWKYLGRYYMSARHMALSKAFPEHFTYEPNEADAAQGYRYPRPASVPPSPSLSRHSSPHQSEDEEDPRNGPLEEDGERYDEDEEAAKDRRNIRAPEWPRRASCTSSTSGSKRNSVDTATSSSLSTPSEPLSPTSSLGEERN
Chain of hGYS1 enzyme (recombinant hGYS1/GN1 protein) (P46976 whole entry partner): as the sequence (P46976 whole entry partner) above

SMILES	IC50 [1] [nM]	IC50 ([2]; Homo sapiens, HeLa, 24 h) [nM]	IC50 [3] [nM]	IC50 [2] [nM]
C[C@@H](NC(=O)N(C)C)C(=O)N1C[C@H](F)C[C@H]1C(=O)N[C@@H](c1ccccc1)c1ccc(C2CC2)c(F)n1 [Compound 311, (2S,4R)-N-[(S)-(5-cyclopropyl-6-fluoropyridin-2-yl)(phenyl)methyl]-1-[(2R)-2-[(dimethylcarbamoyl)amino]propanoyl]-4-fluoropyrrolidine-2-carboxamide]	127	2100	> 100000	
Cc1nnc(CC(=O)N2C[C@H](F)C[C@H]2C(=O)N[C@@H](c2ccccc2)c2ccc(C(C)C)c(F)c2)o1 [Compound 332, (2S,4R)-4-fluoro-N-[(S)-[3-fluoro-4-(propan-2-yl)phenyl](phenyl)methyl]-1-[2-(5-methyl-1,3,4-oxadiazol-2-yl)acetyl]pyrrolidine-2-carboxamide]	25	270	> 100000	
Cc1coc(CC(=O)N2C[C@H](F)C[C@H]2C(=O)N[C@@H](c2ccccc2)c2ccc(C3CC3)c(F)n2)n1 [Compound 314, (2S,4R)-N-[(S)-(5-cyclopropyl-6-fluoropyridin-2-yl)(phenyl)methyl]-4-fluoro-1-[2-(4-methyl-1,3-oxazol-2-yl)acetyl]pyrrolidine-2-carboxamide]	63	1010	> 100000	
Cc1nccc(NCC(=O)N2C[C@H](F)C[C@H]2C(=O)N[C@@H](c2ccccc2)c2ccc(C(C)C)cn2)n1 [Compound 269, (2S,4R)-4-fluoro-1-{2-[(2-methylpyrimidin-4-yl)amino]acetyl}-N-[(S)-phenyl[5-(propan-2-yl)pyridin-2-yl]methyl]pyrrolidine-2-carboxamide]	14	240	> 100000	
CC(C)c1ccc([C@@H](NC(=O)[C@@H]2C[C@@H](F)CN2C(=O)Cn2cc(C(F)(F)F)nn2)c2ccccc2)cc1F [Compound 372, (2S,4R)-4-fluoro-N-[(S)-[3-fluoro-4-(propan-2-yl)phenyl](phenyl)methyl]-1-{2-[4-(trifluoromethyl)-1H-1,2,3-triazol-1-yl]acetyl}pyrrolidine-2-carboxamide]	36	1100	> 100000	
CCN(CC)c1cnn(CC(=O)N2C[C@H](F)C[C@H]2C(=O)N[C@@H](c2ccccc2)c2ccc(C3CC3)c(F)n2)n1 [Compound 319, (2S,4R)-N-[(S)-(5-cyclopropyl-6-fluoropyridin-2-yl)(phenyl)methyl]-1-{2-[4-(diethylamino)-2H-1,2,3-triazol-2-yl]acetyl}-4-fluoropyrrolidine-2-carboxamide]	7	240	> 100000	
Cc1coc(CC(=O)N2C[C@H](F)C[C@H]2C(=O)N[C@@H](c2ccccc2)c2ccc(C(C)C)cn2)n1 [Compound 272]	54	710	> 100000	
CC(C)c1ccc([C@@H](NC(=O)[C@@H]2C[C@@H](F)CN2C(=O)CNc2ncco2)c2ccccc2)cc1 [Compound 198, (2S,4R)-4-fluoro-1-{2-[(1,3-oxazol-2-yl)amino]acetyl}-N-[(S)-phenyl[4-(propan-2-yl)phenyl]methyl]pyrrolidine-2-carboxamide]	31	390	> 100000	
Cc1n[nH]c(C)c1CC(=O)N1C[C@H](F)C[C@H]1C(=O)N[C@@H](c1ccccc1)c1ccc(C(C)C)cn1 [Compound 246, (2S,4R)-1-[2-(3,5-dimethyl-1H-pyrazol-4-yl)acetyl]-4-fluoro-N-[(S)-phenyl[5-(propan-2-yl)pyridin-2-yl]methyl]pyrrolidine-2-carboxamide]	33	620	> 100000	

Next, values leading:

IC50 [1] [nM]	IC50 ([2]; Homo sapiens, HeLa, 24 h) [nM]	IC50 [3] [nM]	IC50 [2] [nM]	SMILES
557	> 30000	> 100000		O=C(N[C@H](c1ccccc1)c1ccc(C2CC(F)(F)C2)c(F)n1)[C@@H]1C[C@@H](F)CN1C(=O)Cc1ccc(=O)[nH]c1 [Compound 520, (2S,4R)-N-[(R)-[5-(3,3-difluorocyclobutyl)-6-fluoropyridin-2-yl](phenyl)methyl]-4-fluoro-1-[2-(6-oxo-1,6-dihydropyridin-3-yl)acetyl]pyrrolidine-2-carboxamide]
58	440	> 100000		CC(C)c1ccc([C@@H](NC(=O)[C@@H]2C[C@@H](F)CN2C(=O)[C@@H]2CNC(=O)O2)c2ccccc2)cc1F [Compound 381, (2S,4R)-4-fluoro-N-[(S)-[3-fluoro-4-(propan-2-yl)phenyl](phenyl)methyl]-1-[(5S)-2-oxo-1,3-oxazolidine-5-carbonyl]pyrrolidine-2-carboxamide]
46	770	> 100000		Cc1nc2ccccc2n1CC(=O)N1C[C@H](F)C[C@H]1C(=O)N[C@@H](c1ccccc1)c1ccc(C2(C)CC2)c(F)c1 [Compound 566, (2S,4R)-4-fluoro-N-[(S)-[3-fluoro-4-(1-methylcyclopropyl)phenyl](phenyl)methyl]-1-[2-(2-methyl-1H-1,3-benzodiazol-1-yl)acetyl]pyrrolidine-2-carboxamide]
41	1020	> 100000		CN1CCN(C(=O)NCC(=O)N2C[C@H](F)C[C@H]2C(=O)N[C@@H](c2ccccc2)c2ccc(C3CC3)c(F)c2)CC1 [Compound 486, N-{2-[(2S,4R)-2-{[(S)-(4-cyclopropyl-3-fluorophenyl)(phenyl)methyl]carbamoyl}-4-fluoropyrrolidin-1-yl]-2-oxoethyl}-4-methylpiperazine-1-carboxamide]
642		> 100000	11500	CC(C(=O)N1C[C@H](F)C[C@H]1C(=O)N[C@@H](c1ccccc1)c1ccc(C2(C)CC2)c(F)c1)n1cnc2ccccc21 (single isomer, unassigned) [Compound 567, (2S,4R)-1-[(2R) or (2S)-2-(1H-1,3-benzodiazol-1-yl)propanoyl]-4-fluoro-N-[(S)-[3-fluoro-4-(1-methylcyclopropyl)phenyl](phenyl)methyl]pyrrolidine-2-carboxamide]
6	170	> 100000		CC(C)c1ccc([C@@H](NC(=O)[C@@H]2C[C@@H](F)CN2C(=O)Cn2ncc(N(C)C)n2)c2ccccc2)cc1F [Compound 378, (2S,4R)-1-{2-[4-(dimethylamino)-2H-1,2,3-triazol-2-yl]acetyl}-4-fluoro-N-[(S)-[3-fluoro-4-(propan-2-yl)phenyl](phenyl)methyl] pyrrolidine-2-carboxamide]
8	190	> 100000		CC(C)c1ccc([C@@H](NC(=O)[C@@H]2C[C@@H](F)CN2C(=O)Cc2cccn3c(=O)[nH]nc23)c2ccccc2)cc1F [Compound 379, (2S,4R)-4-fluoro-N-[(S)-[3-fluoro-4-(propan-2-yl)phenyl](phenyl)methyl]-1-(2-{3-oxo-2H,3H-[1,2,4]triazolo[4,3-a]pyridin-8-yl}acetyl)pyrrolidine-2-carboxamide]
6	130	> 100000		CC(C)c1ccc([C@@H](NC(=O)[C@@H]2C[C@@H](F)CN2C(=O)Cn2ccc(=O)[nH]c2=O)c2ccccc2)nc1F [Compound 785, (2S,4R)-1-[2-(2,4-dioxo-1,2,3,4-tetrahydropyrimidin-1-yl)acetyl]-4-fluoro-N-[(S)-[6-fluoro-5-(propan-2-yl)pyridin-2-yl](phenyl)methyl] pyrrolidine-2-carboxamide]
48	710	> 100000		CC(C)c1ccc([C@@H](NC(=O)[C@@H]2[C@H]3C[C@H]3CN2C(=O)Cc2cnn[nH]2)c2ccccc2)nc1F [Compound 415, (1S,2S,5R)-N-[(S)-[6-fluoro-5-(propan-2-yl)pyridin-2-yl](phenyl)methyl]-3-[2-(1H-1,2,3-triazol-5-yl)acetyl]-3-azabicyclo[3.1.0] hexane-2-carboxamide]
64	1320	> 100000		CN1C(=O)C(CC(=O)N2C[C@H](F)C[C@H]2C(=O)N[C@@H](c2ccccc2)c2ccc(C3(C)CC3)c(F)n2)c2ccccc21 (stereo partly drawn) [Compound 597, (2S,4R)-4-fluoro-N-[(S)-[6-fluoro-5-(1-methylcyclopropyl)pyridin-2-yl](phenyl)methyl]-1-[2-(1-methyl-2-oxo-2,3-dihydro-1H-indol-3-yl)acetyl]pyrrolidine-2-carboxamide]
33		> 100000	540	CC(C)c1ccc([C@@H](NC(=O)[C@@H]2C[C@@H](F)CN2C(=O)C(C)n2ccnc2)c2ccccc2)cc1F (single isomer, unassigned) [Compound 771, (2S,4R)-4-fluoro-N-[(S)-[3-fluoro-4-(propan-2-yl)phenyl](phenyl)methyl]-1-[(2S) or (2R)-2-(1H-imidazol-1-yl)propanoyl]pyrrolidine-2-carboxamide]
36	790	> 100000		O=C(N[C@@H](c1ccccc1)c1ccc(C2CC2)c(F)n1)[C@@H]1C[C@@H](F)CN1C(=O)Cn1cc(C(F)(F)F)cn1 [Compound 728, (2S,4R)-N-[(S)-(5-cyclopropyl-6-fluoropyridin-2-yl)(phenyl)methyl]-4-fluoro-1-{2-[4-(trifluoromethyl)-1H-pyrazol-1-yl]acetyl}pyrrolidine-2-carboxamide]
